Experimental data as given in patent US20220175777A1, “Inhibitors of Multidrug Resistance Transporter P-Glycoprotein” (Southern Methodist University, priority 2014, published 2022).

Legend:
P-gp = P-gp (Homo sapiens, UniProt P08183); conditions: for Transport substrate for P-gp: not told
Procedure: Stimulation of basal ATPase by 29-variants was used as an indicator that a compound may be a P-gp transport substrate. Effects on stimulated P-gp ATPase activity indicated whether a compound directly interfered with ATP usage by the protein (***, p<0.001; **, p<0.01; *, p<0.1; NS, not significant). Quantitative cellular accumulation of 29-variants was performed using LC-MS/MS and is presented as a ratio of the cellular amounts of 29-variants in the presence of P-gp inhibitor, tariquidar, divided by amounts accumulated in its absence. […] Binding of an ATP analog, SL-ATP, to P-gp was used to determine whether ATP binding to P-gp was affected by the 29-variants. Values+/−standard deviations are shown for at least three different P-gp preparations and three independent SL-ATP titration experiments. The values for SL-ATP binding in the presence of 29 were taken directly from Brewer et al. (2014).
Intracellular accumulation of compound 29 variants. Cell accumulation assays for each of the 29 variants were performed as in reference^28 to more directly assess whether the compounds were indeed transport substrates for P-gp.

DU145TXR = test: Resensitization of DU145TXR to paclitaxel by 29 variants (MTT cell viability); assay type: cell-based, human; conditions: for Fold vs PTX ÷ 29: compared to parental compound 29
Text: The Group 1 ChemGen/docking routine produced variants of P-gp inhibitor 29 resensitize a multidrug resistant, P-gp overexpressing prostate cancer cell line to paclitaxel. The mitochondrial reduction potential of cells is often used as an indicator for cell viability using MTT assays^40-42. Using these assays it was observed that the five Group 1 derivatives of 29 predicted through the ChemGen/docking routine and synthesized here, 216, 227, 231, 541 and 551, re-sensitized the P-gp overexpressing prostate cancer cell line, DU145TXR^33, to the chemotherapeutic, paclitaxel (FIG. 9, showing results of assays at concentrations of 3 μM, 5 μM, 7 μM, and 10 μM).
Cytotoxicity of the chemotherapeutic, paclitaxel (PTX) to P-gp overexpressing prostate cancer cells, DU145TXR, was determined in the absence and presence of the ChemGen designed 29-variants, 216, 227, 231, 541 and 551. For each experimental compound IC50 values of PTX alone or in the presence of inhibitors, fold improvement of PTX sensitivity in the presence of inhibitor, and fold improvement of PTX sensitivity by variants compared to parental compound 29 are given.

[1] = biological target: T1, Cysteineless Mouse MDR3 P-glycoprotein (Mus musculus, UniProt P21447, C1070A/C1121A/C1223A/C133A/C427A/C638A/C669A/C713A/C952A); test: SL-ATP binding to P-gp by ESR spectroscopy; conditions: SL-ATP titration in presence of compound
T1 construct: made in house; host or cells: Pichia pastoris
Text: Determination of the possible mode of ATP hydrolysis inhibition by the identified P-glycoprotein inhibitors. The mode of hydrolysis of ATP by P-glycoprotein was investigated by measuring the maximal binding stoichiometry and binding affinity of an analog of ATP, SL-ATP, and by Electron Spin Resonance (ESR) spectroscopy, similar to in both the presence and absence of the identified inhibitors.
The high-field signal of the freely mobile, unbound SL-ATP is compared and is used to calculate the amount of ATP-analog bound to P-glycoprotein. Binding of SL-ATP in the absence of any P-glycoprotein inhibitor saturated at about 2 mol of SL-nucleotide bounds per mol of P-glycoprotein.
FIGS. 2A-2D are plots showing the effects of P-glycoprotein ATP hydrolysis inhibitors on nucleotide binding. Between 30 and 50 microM Pgp were incubated with 50 microM inhibitor compound. Increasing amounts of SL-ATP were added. The ESR signal of the free SL-ATP in the presence of P-glycoprotein and inhibitor was compared to that in the absence of P-glycoprotein. The graphs represent at least 3 individual studies each using 3 to 5 different P-glycoprotein preparations.

[2] = biological target: T1, Cysteineless Mouse MDR3 P-glycoprotein; test: ATP hydrolysis by purified P-glycoprotein, basal and verapamil-stimulated; assay type: biochemical; conditions: for Stimulated ATPase (% of DMSO): in the presence of verapamil; for Stimulated ATPase (% of DMSO) / Basal ATPase (% of DMSO): ± standard deviation; for Basal ATPase (% of DMSO) / Effect on basal ATPase: without added transport substrate
Text: The efficacy of molecules identified using in silico methods to function as potential inhibitors of P-glycoprotein was initially tested with regard to their capability to inhibit ATP hydrolysis by purified P-glycoprotein. For this purpose, a well-established activity assay for ATP hydrolyzing enzymes that uses the oxidation of NADH to NAD+ through coupling the reactions of pyruvate kinase and lactate dehydrogenase to the hydrolysis of ATP was adapted to medium throughput conditions on 96 well plates. […] In this set-up, the effects of potential small molecule inhibitors on the ATP hydrolysis activity of P-glycoprotein were tested in duplicate or triplicate and were repeated at least two times using different enzyme preparations.
The P-glycoprotein used in these assays was a close relative of the human P-glycoprotein that is found in mice. A mutant version of the mouse P-glycoprotein where all intrinsic cysteine amino acids had been replaced by alanine residues was recombinantly expressed in the yeast Pichia pastoris and used for these initial tests. […] Prior to testing the ATP-hydrolysis activity, P-glycoprotein was incubated with phosphatidyl choline for stabilization of the enzyme during the assay.
Different concentrations of the to-be-tested small molecules were added and pre-incubated at 37° C. The ATP hydrolysis reaction was then started by adding equal volume of double concentrated ATPase cocktail. The final ATP concentration in the reaction was 2 mM. The reaction was allowed to proceed for 20 minutes, the rate of ATP hydrolysis was calculated using the molar extinction coefficient of NADH, and the one-to-one relationship of ATP hydrolyzed and NADH oxidized.
Evaluation of mode of inhibition of P-glycoprotein by Group 1 and Group 2 variants of compound 29. To assess the mode of inhibition of P-gp by the novel variants of P-gp inhibitor 29, ATP hydrolysis by P-gp was evaluated in the presence or absence of the variants. […] Murine P-gp (MDR3) expressed in Pichia pastoris that had all naturally occurring cysteines replaced with alanine, was used^45, 46. It is widely assumed that the ATP hydrolytic rate of P-gp is stimulated in the presence of transport substrates when compared to ATP hydrolysis in the absence of transport substrates. Assays comparing these rates can therefore be useful not only in identifying inhibitors of P-gp catalyzed ATP hydrolysis, but also to potentially infer whether a compound might be a transport substrate if basal ATPase rates are stimulated by the addition of a compound.

[3] = biological target: Normal Human MDR1 P-glycoprotein (Homo sapiens, UniProt P08183); test: ATP hydrolysis by human P-gp assembled into membrane nanodiscs; assay type: biochemical; conditions: human MDR1 P-gp in nanodiscs
Text: To assess whether the observed discrepancies of compounds stimulating basal P-gp ATPase activity but not being transport substrates of the human pump in the cell culture assessments were due to the fact that these biochemical assays used a cysteineless variant of the mouse MDR3 P-glycoprotein, the experiments were repeated using normal human MDR1 P-gp. In order to stabilize the human protein for the activity assays, the protein was assembled into membrane nanodiscs as described herein.

[4] = 3 μM inhibitor, fold improvement of PTX sensitivity vs PTX alone

P-gp, sequence (P08183 whole entry): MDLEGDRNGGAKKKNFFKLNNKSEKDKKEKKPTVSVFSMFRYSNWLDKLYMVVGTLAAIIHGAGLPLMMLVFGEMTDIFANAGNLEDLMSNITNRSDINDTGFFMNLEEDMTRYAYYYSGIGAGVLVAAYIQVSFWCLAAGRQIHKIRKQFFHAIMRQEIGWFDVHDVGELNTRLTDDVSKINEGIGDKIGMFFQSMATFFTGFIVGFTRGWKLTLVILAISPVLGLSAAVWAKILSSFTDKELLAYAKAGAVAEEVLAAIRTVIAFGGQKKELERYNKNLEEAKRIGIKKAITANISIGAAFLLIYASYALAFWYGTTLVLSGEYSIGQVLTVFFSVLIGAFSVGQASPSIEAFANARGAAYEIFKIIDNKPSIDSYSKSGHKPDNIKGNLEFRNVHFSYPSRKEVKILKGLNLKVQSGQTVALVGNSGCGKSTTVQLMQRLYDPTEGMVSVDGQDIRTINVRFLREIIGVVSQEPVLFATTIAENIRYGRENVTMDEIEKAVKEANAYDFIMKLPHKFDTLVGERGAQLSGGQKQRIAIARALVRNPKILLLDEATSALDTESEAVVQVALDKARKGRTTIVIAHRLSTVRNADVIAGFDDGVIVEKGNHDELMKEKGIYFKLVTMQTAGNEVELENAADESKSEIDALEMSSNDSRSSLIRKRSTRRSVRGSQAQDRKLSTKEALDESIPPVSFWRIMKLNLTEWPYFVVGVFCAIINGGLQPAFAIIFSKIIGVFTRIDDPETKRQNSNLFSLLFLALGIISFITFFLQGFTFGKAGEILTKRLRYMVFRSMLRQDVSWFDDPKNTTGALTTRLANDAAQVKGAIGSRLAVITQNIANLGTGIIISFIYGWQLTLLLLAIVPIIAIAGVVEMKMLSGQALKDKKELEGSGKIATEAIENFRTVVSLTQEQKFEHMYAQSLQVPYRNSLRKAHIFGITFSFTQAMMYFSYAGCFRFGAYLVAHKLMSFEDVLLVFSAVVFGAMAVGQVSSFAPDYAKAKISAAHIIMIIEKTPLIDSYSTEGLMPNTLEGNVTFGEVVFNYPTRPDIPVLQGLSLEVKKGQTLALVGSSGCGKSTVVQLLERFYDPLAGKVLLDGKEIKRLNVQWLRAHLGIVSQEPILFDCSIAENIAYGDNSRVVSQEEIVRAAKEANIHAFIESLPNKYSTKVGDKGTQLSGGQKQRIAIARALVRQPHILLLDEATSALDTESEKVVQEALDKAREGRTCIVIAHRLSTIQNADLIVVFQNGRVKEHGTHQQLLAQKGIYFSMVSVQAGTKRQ
Normal Human MDR1 P-glycoprotein, sequence (P08183 whole entry): as above
T1 sequence (P21447 whole entry C133A/C427A/C638A/C669A/C713A/C952A/C1070A/C1121A/C1223A): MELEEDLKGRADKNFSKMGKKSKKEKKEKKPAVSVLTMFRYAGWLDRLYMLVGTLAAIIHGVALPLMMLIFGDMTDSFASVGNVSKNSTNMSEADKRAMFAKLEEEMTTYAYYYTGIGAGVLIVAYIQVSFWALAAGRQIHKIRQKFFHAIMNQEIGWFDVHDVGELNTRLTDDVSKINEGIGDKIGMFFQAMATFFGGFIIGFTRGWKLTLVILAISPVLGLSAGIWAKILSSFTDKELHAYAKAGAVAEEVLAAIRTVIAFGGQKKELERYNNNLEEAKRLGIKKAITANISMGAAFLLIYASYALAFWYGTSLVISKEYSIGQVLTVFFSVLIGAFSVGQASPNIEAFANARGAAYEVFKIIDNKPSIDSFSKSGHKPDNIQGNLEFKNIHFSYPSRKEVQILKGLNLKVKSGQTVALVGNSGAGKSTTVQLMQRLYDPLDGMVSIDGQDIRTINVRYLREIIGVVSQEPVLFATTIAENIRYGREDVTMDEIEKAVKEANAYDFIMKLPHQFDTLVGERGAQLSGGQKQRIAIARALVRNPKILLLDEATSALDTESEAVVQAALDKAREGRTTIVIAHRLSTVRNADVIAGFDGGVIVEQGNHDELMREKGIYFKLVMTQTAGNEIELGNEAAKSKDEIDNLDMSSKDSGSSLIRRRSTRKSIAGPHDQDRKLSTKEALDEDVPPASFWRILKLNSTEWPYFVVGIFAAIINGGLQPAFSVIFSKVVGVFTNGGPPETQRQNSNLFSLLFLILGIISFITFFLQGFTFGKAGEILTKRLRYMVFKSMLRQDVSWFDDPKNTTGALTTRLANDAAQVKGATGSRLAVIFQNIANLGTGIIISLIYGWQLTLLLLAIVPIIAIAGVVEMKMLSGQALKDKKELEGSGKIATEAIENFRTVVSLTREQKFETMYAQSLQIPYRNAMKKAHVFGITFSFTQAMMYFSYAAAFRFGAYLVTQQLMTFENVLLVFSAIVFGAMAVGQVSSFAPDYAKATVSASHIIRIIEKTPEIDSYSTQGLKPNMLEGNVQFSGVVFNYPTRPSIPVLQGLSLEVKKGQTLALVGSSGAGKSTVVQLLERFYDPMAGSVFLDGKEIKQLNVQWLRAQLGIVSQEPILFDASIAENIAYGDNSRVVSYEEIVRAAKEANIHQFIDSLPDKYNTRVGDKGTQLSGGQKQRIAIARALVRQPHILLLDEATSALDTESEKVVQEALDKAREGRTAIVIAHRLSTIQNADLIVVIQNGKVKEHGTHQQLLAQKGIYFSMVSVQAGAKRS

| SMILES | Maximum ATP binding mol SL-ANP bound/mol P-gp [1] [mol SL-ANP bound/mol P-gp] | Stimulated ATPase (% of DMSO) [2] | Basal ATPase (% of DMSO) [2] | Basal ATPase (% of DMSO) [3] | Stimulated ATPase (% of DMSO) [3] | Transport substrate for P-gp (P-gp) | Intracellular accumulation in the presence versus absence of TQR (P-gp) | Fold vs PTX ÷ 29 (DU145TXR; 3 μM inhibitor, listed as 227) [Fold] | Fold vs PTX (DU145TXR; [4]) [Fold] | Fold vs PTX ÷ 29 (DU145TXR; 5 μM inhibitor) [Fold] | Fold vs PTX (DU145TXR; 5 μM inhibitor, vs PTX alone) [Fold] | Fold vs PTX ÷ 29 (DU145TXR; 7 μM inhibitor) [Fold] | Fold vs PTX (DU145TXR; 7 μM inhibitor, vs PTX alone) [Fold] | Fold vs PTX ÷ 29 (DU145TXR; 10 μM inhibitor) [Fold] | Fold vs PTX (DU145TXR; 10 μM inhibitor, vs PTX alone) [Fold] | Fold vs PTX ÷ 29 (DU145TXR; 3 μM inhibitor, listed as 231) [Fold] | Effect on basal ATPase ([2]; listed as 280) | Effect on basal ATPase ([2]; listed as 286) |
| --- | --- | --- | --- | --- | --- | --- | --- | --- | --- | --- | --- | --- | --- | --- | --- | --- | --- | --- |
| COc1cccc2c1C(=O)c1c(O)c3c(c(O)c1C2=O)C[C@@](O)(C(C)=O)C[C@@H]3O[C@H]1C[C@H](N)[C@H](O)[C@H](C)O1 [DNR, Daunorubicin, reference compound] |  |  |  |  |  |  | very strong cellular accumulation |  |  |  |  |  |  |  |  |  |  |  |
| Cc1cc(C)c(-c2cc(NC(=O)CSCC(=O)N3c4ccccc4CCc4ccccc43)n(-c3ccccc3)n2)cc1C [SMU29-227] | 1.8 ± 0.1 | 50 ± 2 % of DMSO | 88 ± 4 % of DMSO | 83 ± 7 % of DMSO | 62 ± 5 % of DMSO |  |  | 3.8 | 13 | 3.7 | 41 | 10 | 353 | 5 | 530 |  |  |  |
| COc1cc(NC(=O)CSCC(=O)Nc2cc(-c3cc(C)c(C)cc3C)nn2-c2ccccc2)cc(OC)c1OC [SMU29-238] | 1.2 ± 0.1 | 194 ± 22 % of DMSO | 1143 ± 46 % of DMSO | 89 ± 7 % of DMSO | 61 ± 7 % of DMSO | very likely to be transport substrates | very large and significant increase |  |  |  |  |  |  |  |  |  |  |  |
| Cc1cc(C)c(-c2cc(NC(=O)CSCC(=O)NC34CC5CC(CC(C5)C3)C4)n(-c3ccccc3)n2)cc1C [SMU29-278] | 1.3 ± 0.1 | 41 ± 7 % of DMSO | 78 ± 4 % of DMSO | 74 ± 6 % of DMSO | 63 ± 6 % of DMSO | very unlikely to be a transport substrate | did not show significantly different intracellular accumulations |  |  |  |  |  |  |  |  |  |  |  |
| Cc1cc(C)c(-c2cc(NC(=O)CSCC(=O)NC(c3ccccc3)c3ccccc3)n(-c3ccccc3)n2)cc1C [SMU29-280] | 1.6 ± 0.1 | 116 ± 4 % of DMSO | 148 ± 4 % of DMSO | 76 ± 8 % of DMSO | 54 ± 7 % of DMSO |  | did not show significantly different intracellular accumulations |  |  |  |  |  |  |  |  |  | stimulated basal ATPase only marginally or with no statistical significance |  |

Second part, led by results:

| Maximum ATP binding mol SL-ANP bound/mol P-gp [1] [mol SL-ANP bound/mol P-gp] | Stimulated ATPase (% of DMSO) [2] | Basal ATPase (% of DMSO) [2] | Basal ATPase (% of DMSO) [3] | Stimulated ATPase (% of DMSO) [3] | Transport substrate for P-gp (P-gp) | SMILES | Intracellular accumulation in the presence versus absence of TQR (P-gp) | Fold vs PTX ÷ 29 (DU145TXR; 3 μM inhibitor, listed as 227) [Fold] | Fold vs PTX (DU145TXR; [4]) [Fold] | Fold vs PTX ÷ 29 (DU145TXR; 5 μM inhibitor) [Fold] | Fold vs PTX (DU145TXR; 5 μM inhibitor, vs PTX alone) [Fold] | Fold vs PTX ÷ 29 (DU145TXR; 7 μM inhibitor) [Fold] | Fold vs PTX (DU145TXR; 7 μM inhibitor, vs PTX alone) [Fold] | Fold vs PTX ÷ 29 (DU145TXR; 10 μM inhibitor) [Fold] | Fold vs PTX (DU145TXR; 10 μM inhibitor, vs PTX alone) [Fold] | Fold vs PTX ÷ 29 (DU145TXR; 3 μM inhibitor, listed as 231) [Fold] | Effect on basal ATPase ([2]; listed as 280) | Effect on basal ATPase ([2]; listed as 286) |
| --- | --- | --- | --- | --- | --- | --- | --- | --- | --- | --- | --- | --- | --- | --- | --- | --- | --- | --- |
| 1.6 ± 0.1 | 141 ± 18 % of DMSO | 70 ± 0 % of DMSO | 70 ± 4 % of DMSO | 40 ± 3 % of DMSO |  | Cc1cc(C)c(-c2cc(NC(=O)CSCC(=O)Nc3ccc4ccccc4c3)n(-c3ccccc3)n2)cc1C [SMU29-231] |  |  | 14 | 4.2 | 46 | 3.4 | 303 | 11 | 1060 | 4.1 |  |  |
| 1.9 ± 0.1 | 123 ± 15 % of DMSO | 355 ± 7 % of DMSO | 84 ± 9 % of DMSO | 59 ± 6 % of DMSO | very likely to be transport substrates | Cc1cc(C)c(-c2cc(NC(=O)CSCC(=O)Nc3ccc4ncsc4c3)n(-c3ccccc3)n2)cc1C [SMU29-255] | more modest, but statistically significant increases |  |  |  |  |  |  |  |  |  |  |  |
| 1.9 ± 0.1 | 98 ± 2 % of DMSO | 143 ± 32 % of DMSO | 95 ± 3 % of DMSO | 59 ± 4 % of DMSO | very likely to be transport substrates | Cc1cc(C)c(-c2cc(NC(=O)CSCC(=O)NCc3ccc(F)cc3)n(-c3ccccc3)n2)cc1C [SMU29-286] | more modest, but statistically significant increases |  |  |  |  |  |  |  |  |  |  | stimulated basal ATPase only marginally or with no statistical significance |
